Assay results from patent publication US10844077B2, “Thiazolyl-containing compounds for treating proliferative diseases” (Dana-Farber Cancer Institute, Inc., priority 2014, dated 2020).

Target: BTK (Homo sapiens (Human), UniProt Q06187)
Test: BTK inhibitory activity
Format: biochemical
Conditions: not given

BTK, sequence (Q06187 whole entry, looked up): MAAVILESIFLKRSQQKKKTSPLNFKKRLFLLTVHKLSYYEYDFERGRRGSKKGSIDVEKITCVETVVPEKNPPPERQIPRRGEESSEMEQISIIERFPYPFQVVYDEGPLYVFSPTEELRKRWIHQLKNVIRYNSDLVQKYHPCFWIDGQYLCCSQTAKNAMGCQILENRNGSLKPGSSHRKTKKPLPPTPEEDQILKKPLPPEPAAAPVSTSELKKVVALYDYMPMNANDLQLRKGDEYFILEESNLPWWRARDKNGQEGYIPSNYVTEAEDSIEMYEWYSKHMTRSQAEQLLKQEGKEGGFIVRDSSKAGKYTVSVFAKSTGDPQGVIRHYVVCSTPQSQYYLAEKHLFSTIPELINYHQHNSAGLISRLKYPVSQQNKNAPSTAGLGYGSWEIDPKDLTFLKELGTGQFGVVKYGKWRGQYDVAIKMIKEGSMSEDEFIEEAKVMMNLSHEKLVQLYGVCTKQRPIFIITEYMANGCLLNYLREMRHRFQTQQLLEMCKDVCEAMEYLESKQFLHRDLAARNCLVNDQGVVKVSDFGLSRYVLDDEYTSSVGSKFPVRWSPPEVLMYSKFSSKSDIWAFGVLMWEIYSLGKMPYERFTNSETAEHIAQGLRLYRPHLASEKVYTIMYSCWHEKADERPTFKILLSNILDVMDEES

`C=CC(=O)N1CCC(n2cc(Nc3ncc(C(=O)Nc4c(C)cccc4Cl)s3)cn2)CC1` [II-3] was tested. Which IC50 did it give?
The IC50 was 19.9 nM.

How did the IC50 turn out when `C=CC(=O)N1CC[C@H](Nc2nccc(Nc3nc4ccc(Oc5ccccc5)nc4s3)n2)C1` [III-1] was run?
Its IC50 is 86.6 nM.

`C=CC(=O)N1CC[C@@H](Nc2nccc(Nc3nc4ccc(Oc5ccccc5)nc4s3)n2)C1` [III-2] was tested. Which IC50 did it give?
The IC50 was 281 nM.

`C=CC(=O)N1CCC[C@H](Nc2nccc(Nc3nc4ccc(Oc5ccccc5)nc4s3)n2)C1` [III-3] was tested. Which IC50 did it give?
The IC50 was 19.4 nM.

Which IC50 does the source give for `C=CC(=O)N1CCC[C@@H](Nc2nccc(Nc3nc4ccc(Oc5ccccc5)nc4s3)n2)C1` [III-4] here?
Its IC50 is 367 nM.

How did the IC50 turn out when `C=CC(=O)N1CCCCC(Nc2nccc(Nc3nc4ccc(Oc5ccccc5)nc4s3)n2)C1` (stereo not drawn) [III-5] was run?
Its IC50 is 9.06 nM.

Tested on: OCI-Ly19
Test: CellTiter-Glo Luminescent cell viability assay
Format: cell-based
Conditions: cell survival, 72 hours
Protocol: (§1) The inhibitory activities of exemplary compounds described herein against select protein kinases and cells were determined. Cell survival following treatment of exemplary compounds described herein was assessed by CellTiter-Glo® Luminescent cell viability assay (Promega). The cells were seeded into 384 well plates with the EL406 Combination Washer Dispenser (BioTek Instruments, Inc.), and a series diluted exemplary compounds (20˜0.0006 μM) were injected into the culture media with the JANUS Automated Workstation (PerkinElmer Inc.). The cells were treated for 72 hours at 37° C. with 5% CO2. Luminescent measurement is performed using the 2104 Envision® Multilabel Reader (PerkinElmer Inc.). EC50 values were calculated with […] PRISM software.

For `C=CC(=O)N1CCC(n2cc(Nc3ncc(C(=O)Nc4c(C)cccc4Cl)s3)cn2)CC1` [II-3], which EC50 is on record?
Its EC50 is 9970 nM.

With `C=CC(=O)N1CC[C@H](Nc2nccc(Nc3nc4ccc(Oc5ccccc5)nc4s3)n2)C1` [III-1] as the compound, how does the EC50 read?
The EC50 was 1250 nM.

With `C=CC(=O)N1CC[C@@H](Nc2nccc(Nc3nc4ccc(Oc5ccccc5)nc4s3)n2)C1` [III-2] as the compound, how does the EC50 read?
Its EC50 is 1100 nM.

How did the EC50 turn out when `C=CC(=O)N1CCC[C@H](Nc2nccc(Nc3nc4ccc(Oc5ccccc5)nc4s3)n2)C1` [III-3] was run?
The EC50 was 2500 nM.

For `C=CC(=O)N1CCC[C@@H](Nc2nccc(Nc3nc4ccc(Oc5ccccc5)nc4s3)n2)C1` [III-4], which EC50 is on record?
The EC50 was 1170 nM.

`C=CC(=O)N1CCCCC(Nc2nccc(Nc3nc4ccc(Oc5ccccc5)nc4s3)n2)C1` (stereo not drawn) [III-5] was tested. Which EC50 did it give?
Its EC50 is 1330 nM.

Tested on: BCWM.1
Test: CellTiter-Glo Luminescent cell viability assay
Format: cell-based
Conditions: cell survival, 72 hours
Protocol: as §1

`C=CC(=O)N1CCC(n2cc(Nc3ncc(C(=O)Nc4c(C)cccc4Cl)s3)cn2)CC1` [II-3] was tested. Which EC50 did it give?
The EC50 was 690 nM.

How did the EC50 turn out when `C=CC(=O)N1CC[C@H](Nc2nccc(Nc3nc4ccc(Oc5ccccc5)nc4s3)n2)C1` [III-1] was run?
Its EC50 is 1830 nM.

`C=CC(=O)N1CC[C@@H](Nc2nccc(Nc3nc4ccc(Oc5ccccc5)nc4s3)n2)C1` [III-2] was tested. Which EC50 did it give?
Its EC50 is 916 nM.

For `C=CC(=O)N1CCC[C@H](Nc2nccc(Nc3nc4ccc(Oc5ccccc5)nc4s3)n2)C1` [III-3], which EC50 is on record?
The EC50 was 2710 nM.

`C=CC(=O)N1CCC[C@@H](Nc2nccc(Nc3nc4ccc(Oc5ccccc5)nc4s3)n2)C1` [III-4] was tested. Which EC50 did it give?
The EC50 was 808 nM.

How did the EC50 turn out when `C=CC(=O)N1CCCCC(Nc2nccc(Nc3nc4ccc(Oc5ccccc5)nc4s3)n2)C1` (stereo not drawn) [III-5] was run?
Its EC50 is 1190 nM.

Tested on: HBL-1
Test: CellTiter-Glo Luminescent cell viability assay
Format: cell-based
Conditions: cell survival, 72 hours
Protocol: as §1

Which EC50 does the source give for `C=CC(=O)N1CCC(n2cc(Nc3ncc(C(=O)Nc4c(C)cccc4Cl)s3)cn2)CC1` [II-3] here?
Its EC50 is 3650 nM.

How did the EC50 turn out when `C=CC(=O)N1CC[C@H](Nc2nccc(Nc3nc4ccc(Oc5ccccc5)nc4s3)n2)C1` [III-1] was run?
Its EC50 is 3200 nM.

For `C=CC(=O)N1CC[C@@H](Nc2nccc(Nc3nc4ccc(Oc5ccccc5)nc4s3)n2)C1` [III-2], which EC50 is on record?
The EC50 was 2960 nM.

With `C=CC(=O)N1CCC[C@H](Nc2nccc(Nc3nc4ccc(Oc5ccccc5)nc4s3)n2)C1` [III-3] as the compound, how does the EC50 read?
Its EC50 is 2960 nM.

Which EC50 does the source give for `C=CC(=O)N1CCC[C@@H](Nc2nccc(Nc3nc4ccc(Oc5ccccc5)nc4s3)n2)C1` [III-4] here?
The EC50 was 2550 nM.

Which EC50 does the source give for `C=CC(=O)N1CCCCC(Nc2nccc(Nc3nc4ccc(Oc5ccccc5)nc4s3)n2)C1` (stereo not drawn) [III-5] here?
Its EC50 is 896 nM.

Tested on: TMD-8
Test: CellTiter-Glo Luminescent cell viability assay
Format: cell-based
Conditions: cell survival, 72 hours
Protocol: as §1

Which EC50 does the source give for `C=CC(=O)N1CCC(n2cc(Nc3ncc(C(=O)Nc4c(C)cccc4Cl)s3)cn2)CC1` [II-3] here?
The EC50 was 2540 nM.

For `C=CC(=O)N1CC[C@H](Nc2nccc(Nc3nc4ccc(Oc5ccccc5)nc4s3)n2)C1` [III-1], which EC50 is on record?
The EC50 was 3850 nM.

How did the EC50 turn out when `C=CC(=O)N1CC[C@@H](Nc2nccc(Nc3nc4ccc(Oc5ccccc5)nc4s3)n2)C1` [III-2] was run?
Its EC50 is 2640 nM.

For `C=CC(=O)N1CCC[C@H](Nc2nccc(Nc3nc4ccc(Oc5ccccc5)nc4s3)n2)C1` [III-3], which EC50 is on record?
The EC50 was 4130 nM.

With `C=CC(=O)N1CCC[C@@H](Nc2nccc(Nc3nc4ccc(Oc5ccccc5)nc4s3)n2)C1` [III-4] as the compound, how does the EC50 read?
The EC50 was 2120 nM.

With `C=CC(=O)N1CCCCC(Nc2nccc(Nc3nc4ccc(Oc5ccccc5)nc4s3)n2)C1` (stereo not drawn) [III-5] as the compound, how does the EC50 read?
The EC50 was 1230 nM.

Tested on: Ramos
Test: CellTiter-Glo Luminescent cell viability assay
Format: cell-based
Conditions: cell survival, 72 hours
Protocol: as §1

With `C=CC(=O)N1CCC(n2cc(Nc3ncc(C(=O)Nc4c(C)cccc4Cl)s3)cn2)CC1` [II-3] as the compound, how does the EC50 read?
Its EC50 is over 20000 nM.

How did the EC50 turn out when `C=CC(=O)N1CC[C@H](Nc2nccc(Nc3nc4ccc(Oc5ccccc5)nc4s3)n2)C1` [III-1] was run?
Its EC50 is 3700 nM.

With `C=CC(=O)N1CC[C@@H](Nc2nccc(Nc3nc4ccc(Oc5ccccc5)nc4s3)n2)C1` [III-2] as the compound, how does the EC50 read?
The EC50 was 2300 nM.

Which EC50 does the source give for `C=CC(=O)N1CCC[C@H](Nc2nccc(Nc3nc4ccc(Oc5ccccc5)nc4s3)n2)C1` [III-3] here?
The EC50 was 8460 nM.

`C=CC(=O)N1CCC[C@@H](Nc2nccc(Nc3nc4ccc(Oc5ccccc5)nc4s3)n2)C1` [III-4] was tested. Which EC50 did it give?
The EC50 was 2190 nM.

With `C=CC(=O)N1CCCCC(Nc2nccc(Nc3nc4ccc(Oc5ccccc5)nc4s3)n2)C1` (stereo not drawn) [III-5] as the compound, how does the EC50 read?
Its EC50 is 2720 nM.

Tested on: MWCL-1
Test: CellTiter-Glo Luminescent cell viability assay
Format: cell-based
Conditions: cell survival, 72 hours
Protocol: as §1

With `C=CC(=O)N1CCC(n2cc(Nc3ncc(C(=O)Nc4c(C)cccc4Cl)s3)cn2)CC1` [II-3] as the compound, how does the EC50 read?
Its EC50 is 772 nM.

With `C=CC(=O)N1CC[C@H](Nc2nccc(Nc3nc4ccc(Oc5ccccc5)nc4s3)n2)C1` [III-1] as the compound, how does the EC50 read?
Its EC50 is 4080 nM.

How did the EC50 turn out when `C=CC(=O)N1CC[C@@H](Nc2nccc(Nc3nc4ccc(Oc5ccccc5)nc4s3)n2)C1` [III-2] was run?
Its EC50 is 1350 nM.

Which EC50 does the source give for `C=CC(=O)N1CCC[C@H](Nc2nccc(Nc3nc4ccc(Oc5ccccc5)nc4s3)n2)C1` [III-3] here?
Its EC50 is 5750 nM.

`C=CC(=O)N1CCC[C@@H](Nc2nccc(Nc3nc4ccc(Oc5ccccc5)nc4s3)n2)C1` [III-4] was tested. Which EC50 did it give?
Its EC50 is 2160 nM.

`C=CC(=O)N1CCCCC(Nc2nccc(Nc3nc4ccc(Oc5ccccc5)nc4s3)n2)C1` (stereo not drawn) [III-5] was tested. Which EC50 did it give?
The EC50 was 3370 nM.
